Data set [1] has as its target T1, M. tuberculosis InhA (Mycobacterium tuberculosis, UniProt P9WGR1).
T1 construct: made in house; host or cells: E. coli
Description: InhA enzymatic inhibition assay (NADH oxidation at 340 nm). The format is biochemical. To be noted: for inhibition at 0.01 µM: compound at 10 nM, read-out: InhA enzyme inhibition percentage at 10 nM.

Data set [2] concerns the target mycobacterium tuberculosis InhA enzyme. Set-up: method as in doi:10.1016/j.molstruc.2020.129148. To be noted: literature lead structures; read-out: IC50 (InhA inhibitors, lead structures); cited from earlier work.
Where [3] appears, read: 70 nM InhA, 2 h pre-incubation, pH 6.8, 25 °C, 35 μM trans-2-decenoyl-CoA, 200 μM NADH, read-out: IC50, inhibitory effect against InhA.

The structures appear in SMILES notation. pIC50: −log10 of the molar value. Like-named read-outs stand apart in the source and are kept apart here.

T1 sequence (P9WGR1 whole entry, looked up): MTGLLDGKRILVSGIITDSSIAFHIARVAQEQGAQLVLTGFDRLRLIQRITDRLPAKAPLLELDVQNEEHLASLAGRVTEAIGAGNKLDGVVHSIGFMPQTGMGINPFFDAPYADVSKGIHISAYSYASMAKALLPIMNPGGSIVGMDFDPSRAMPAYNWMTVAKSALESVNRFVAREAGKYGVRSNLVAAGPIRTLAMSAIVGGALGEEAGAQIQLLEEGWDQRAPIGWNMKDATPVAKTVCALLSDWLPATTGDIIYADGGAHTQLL

For the molecule `Sc1nnc(Cc2ccccc2)n1/N=C/c1cccs1` [4a, 5.-benzyl-4-((thiophen-2-ylmethylene)amino)-2,4-dihydro-3H-1,2,4-triazole-3-thione], the melting point was 184 to 186 °C. Besides, the pIC50 in data set [1] (setting [3]) was 7.27.

For `Sc1nnc(Cc2ccccc2)n1/N=C/c1cccc2c1OCO2` [4b], the melting point was 164 °C. In addition, the pIC50 in data set [1] (setting [3]) was 8.04.

For `S=c1[nH]nc(Cc2ccccc2)n1/N=C/c1ccc(N2CCOCC2)cc1` [4c, (E)-5-benzyl-4-((4-morpholinobenzylidene)amino)-2,4-dihydro-3H-1,2,4-triazole-3-thione], the negative-log IC50 (pIC50) in data set [1] (setting [3]) is 8.09.

The molecule `C#CCSc1nnc(Cc2ccccc2)n1/N=C/c1cccs1` [5a, (E)-N-(3-benzyl-5-(prop-2-yn-1-ylthio)-4H-1,2,4-triazol-4-yl)-1-(thiophen-2-yl)methanimine] yielded a melting point of 98 °C. In addition, in data set [1] (setting [3]), the pIC50 is 8.25.

`C#CCSc1nnc(Cc2ccccc2)n1/N=C/c1cccc2c1OCO2` [5b, (E)-1-(benzo[d][1,3]dioxol-4-yl)-N-(3-benzyl-5-(prop-2-yn-1-ylthio)-4H-1,2,4-triazol-4-yl)methanimine] returned a melting point of 140 °C. Further, in data set [1] (setting [3]), the negative logarithm of the IC50 (pIC50) is 9.18. For the same molecule, in data set [1], the inhibition at 0.01 µM turned out to be 100%.

The molecule `C#CCSc1nnc(Cc2ccccc2)n1/N=C/c1ccc(N2CCOCC2)cc1` [5c] returned a melting point of 236 °C. Further, the negative logarithm of the IC50 (pIC50) in data set [1] (setting [3]) was 9.64. Also, in data set [1], the inhibition at 0.01 µM worked out at 100%.

Turning to `O=C(O)c1ccc(-n2cc(CSc3nnc(Cc4ccccc4)n3/N=C/c3cccs3)nn2)cc1` [7a, (E)-4-(4-(((5-benzyl-4-((thiophen-2-ylmethylene)amino)-4H-1,2,4-triazol-3-yl)thio)methyl)-1H-1,2,3-triazol-1-yl)benzoic acid], the melting point is 196 °C. Also, in data set [1] (setting [3]), the pIC50 was 8.21.

Turning to `CC(=O)c1ccc(-n2cc(CSc3nnc(Cc4ccccc4)n3/N=C/c3cccs3)nn2)cc1` [7b], the melting point amounted to 196 °C. In data set [1], this molecule gave a pIC50 of 7.90.

In turn, `O=C(O)c1ccc(-n2cc(CSc3nnc(Cc4ccccc4)n3/N=C/c3cccc4c3OCO4)nn2)cc1` [7c, (E)-4-(4-(((4-((benzo[d][1,3]dioxol-4-ylmethylene)amino)-5-benzyl-4H-1,2,4-triazol-3-yl)thio)methyl)-1H-1,2,3-triazol-1-yl)benzoic acid] registered a melting point of 188 °C. In data set [1], the pIC50 was 10.13 and the inhibition at 0.01 µM was determined as 100%.

With `CC(=O)c1ccc(-n2cc(CSc3nnc(Cc4ccccc4)n3/N=C/c3cccc4c3OCO4)nn2)cc1` [7d], the melting point was 196 °C. The inhibition at 0.01 µM in data set [1] worked out at 100%. In data set [1] (read-out: IC50, inhibitory effect against InhA, 70 nM InhA, 2 h pre-incubation, pH 6.8, 25 °C, 35 μM trans-2-decenoyl-CoA, 200 μM NADH), the negative-log IC50 (pIC50) is 9.74.

`O=C(O)c1ccc(-n2cc(CSc3nnc(Cc4ccccc4)n3/N=C/c3ccc(N4CCOCC4)cc3)nn2)cc1` [7e, (E)-4-(4-(((5-benzyl-4-((4-morpholinobenzylidene)amino)-4H-1,2,4-triazol-3-yl)thio)methyl)-1H-1,2,3-triazol-1-yl)benzoic acid] displayed a melting point of 192 °C. In data set [1], the pIC50 was 9.89 and the inhibition at 0.01 µM was determined as 100%.

For the molecule `CC(=O)c1ccc(-n2cc(CSc3nnc(Cc4ccccc4)n3/N=C/c3ccc(N4CCOCC4)cc3)nn2)cc1` [7f], the melting point fell in the range of 198 to 200 °C. In addition, the negative-log IC50 (pIC50) in data set [1] (setting [3]) was 9.60. Moreover, the inhibition at 0.01 µM in data set [1] is 100%.

Consider `Cc1nc(C)n(CCCNc2ccc(C(=O)Nc3ccc(F)c(Oc4ccccc4)c3)cn2)n1` [Lead structure A], for which, in data set [2], the pIC50 is 6.04.

Consider `CNC(=O)CN(Cc1ccc(F)cc1)C(=O)C[C@H]1CC[C@@H](NC(=O)c2nnn(Cc3ccccc3)c2C)CC1` [Lead structure B], for which the negative-log IC50 (pIC50) in data set [2] is 7.24.
